Measurements reported in US20220323329A1, “ORAL HEALTH COMPOSITION AND PREPARATION PROCESS FOR ORAL HEALTH COMPOSITION” (MMF&T DESENVOLVIMENTO TECNOLÓGICO E INOVAÇÃO LTDA., priority 2019, published 2022).

Key:
[1] = system: Candida albicans (ATCC 10231); assay: Antimicrobial potential of phthalocyanine by direct contact; assay type: cell-based; settings: different concentrations and timespans (10.000 mg and 1.000 mg, 24 hours in FIG. 2)
Description: (§1) Studies were carried out for the improvement of antimicrobial potential of phthalocyanines, in an intrinsic aim of developing toothpastes, such as dental creams and dental foams including phthalocyanine for in vitro studies and possibly also in vivo studies.
(§2) For this purpose, the following microorganisms were used: Streptococcus mutans (ATCC 25175); Candida albicans (ATCC 10231); Enterococcus faecalis (ATCC 29212); and Staphylococcus aureus (ATCC 6538).

[2] = system: Enterococcus faecalis (ATCC 29212); assay: as above; assay type: cell-based; settings: different concentrations and timespans (10.000 mg and 1.000 mg, 24 hours in FIG. 3)
Description: as §1, §2

[3] = system: Staphylococcus aureus (ATCC 6538); assay: as above; assay type: cell-based; settings: different concentrations and timespans (10.000 mg and 1.000 mg, 24 hours in FIG. 4)
Description: as §1, §2

[4] = system: Streptococcus mutans (ATCC 25175); assay: as above; assay type: cell-based; settings: different concentrations and timespans (10.000 mg and 1.000 mg, 3 and 5 minutes in FIGS. 5, 6)
Description: as §1, §2

[5] = PDT with phthalocyanine-glucamine as PTS; rats; cited from earlier work

With `c1ccc2c(c1)-c1nc-2nc2[nH]c(nc3nc(nc4[nH]c(n1)c1ccccc41)-c1ccccc1-3)c1ccccc21` [phthalocyanine] the “microbicidal action / inhibition of microbial growth” value (“microbicidal action / inhibition” below) [1] was “full inhibition of microbial growth”, the “microbicidal action / inhibition” value [2] was “full inhibition of microbial growth” and the “microbicidal action / inhibition” value [3] was “full inhibition of microbial growth”. For the same compound, the “microbicidal action / inhibition” value [4] was “full inhibition of microbial growth”.

For phthalocyanine-glucamine, the “treatment of induced periodontal disease” value [5] is listed as “effective in the treatment of periodontal disease induced in rats”.
